The target in one test is T1, CCK receptor (pancreas) (Rattus norvegicus, UniProt P30551).
T1 construct: The whole pancreas was dissected free of fat tissue and was homogenized; from tissue; host or cells: rat whole pancreas membrane homogenate
T1 sequence (P30551 1-444): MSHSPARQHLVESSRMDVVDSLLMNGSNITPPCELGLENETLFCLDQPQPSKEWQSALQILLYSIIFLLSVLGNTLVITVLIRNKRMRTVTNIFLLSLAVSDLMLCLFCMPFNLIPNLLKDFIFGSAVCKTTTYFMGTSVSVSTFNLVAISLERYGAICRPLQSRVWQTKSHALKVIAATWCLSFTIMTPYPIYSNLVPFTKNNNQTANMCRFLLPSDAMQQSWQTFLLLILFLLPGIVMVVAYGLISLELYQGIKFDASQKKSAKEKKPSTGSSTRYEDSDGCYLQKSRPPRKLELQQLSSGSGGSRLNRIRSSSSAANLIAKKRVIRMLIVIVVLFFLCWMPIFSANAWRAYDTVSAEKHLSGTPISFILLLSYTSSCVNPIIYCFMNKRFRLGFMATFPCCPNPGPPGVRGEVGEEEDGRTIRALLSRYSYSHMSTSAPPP
As to the kind of experiment: CCK Receptor Binding (Pancreas), 125I-CCK-33. The settings on record: inhibition of 125I-CCK-33 binding, rat pancreas membranes, 37°C, 30 minutes. How it is done: 1. CCK Receptor Binding (Pancreas)
CCK-33 was radiolabeled with ¹²⁵I-Bolton Hunter reagent (2000 Ci/mmole) as described by Sankara et al. (J. Biol. Chem. 254: 9349-9351, 1979). Receptor binding was performed according to Innis and Snyder (Proc. Natl. Acad. Sci. 77, 6917-6921, 1980) with the minor modification of adding the additional protease inhibitors, phenylmethane sulfonyl fluoride and o-phenanthroline. The latter two compounds have no effect on the ¹²⁵I-CCK receptor binding assay.
Male Sprague-Dawley rats (200-350g) were sacrificed by decapitation. The whole pancreas was dissected free of fat tissue and was homogenized in 20 volumes of ice-cold 50 mM, Tris HCl (pH 7.7 at 25°C) with a Brinkmann Polytron PT 10. The homogenates were centrifuged at 48,000 g for 10 min. Pellets were resuspended in Tris Buffer, centrifuged as above and resuspended in 200 volumes of binding assay buffer (50 mM Tris HCl, pH 7.7 at 25°C, 5 mM dithiothrietol, 0.1 mM bacitracin, 1.2 mM phenylmethane sulfonyl fluoride and 0.5 mM o-phenanthroline). […] The supernatant was aspirated and discarded, pellets were counted with a Beckman gamma 5000. […]

Test [1] concerns the target T2, CCK receptor (brain, cerebral cortex) (Cavia porcellus, UniProt H0VZC5).
T2 construct: Cerebral cortex was dissected and used as a receptor source; from tissue; host or cells: guinea pig cerebral cortex membranes
As to the kind of experiment: CCK Receptor Binding (Brain), 125I-CCK-33. Particulars: inhibition of 125I-CCK-33 binding, guinea pig cerebral cortex membranes, 25°C, 2 hours. How it is done:
2. CCK Receptor Binding (Brain)
CCK-33 was radiolabeled and the binding was performed according to the description for the pancreas method with modifications according to Saito et al., J. Neurochem. 37:483-490, 1981.
Male Hartley guinea pigs (300-500g) were sacrificed by decapitation and the brains were removed and placed in ice-cold 50 mM, Tris HCl plus 7.58 g/l Trizma-7.4 (ph 7.4 at 25°C). Cerebral cortex was dissected and used as a receptor source. Each gram of fresh guinea pig brain tissue was homogenized in 10 ml of Tris/Trizma buffer with a Brinkman polytron PT-10. The homogenates were centrifuged at 42,000 g for 15 minutes. Pellets were resuspended in Tris Buffer, centrifuged as above and resuspended in 200 volumes of binding assay buffer (10 mM N-2-hydroxyethyl-piperazine-N′-2-ethane sulfonic acid (HEPES), 5 mM MgCl₂, 0.25 mg/ml bacitracin, 1 mM ethylene glycol-bis-(β-aminoethylether-N,N′-tetraacetic acid) (EGTA), and 0.4% bovine serum albumin (BSA)). […] The supernatant was aspirated and discarded, pellets were counted with a Beckman gamma 5000.

T2 sequence (H0VZC5 entry or part of it): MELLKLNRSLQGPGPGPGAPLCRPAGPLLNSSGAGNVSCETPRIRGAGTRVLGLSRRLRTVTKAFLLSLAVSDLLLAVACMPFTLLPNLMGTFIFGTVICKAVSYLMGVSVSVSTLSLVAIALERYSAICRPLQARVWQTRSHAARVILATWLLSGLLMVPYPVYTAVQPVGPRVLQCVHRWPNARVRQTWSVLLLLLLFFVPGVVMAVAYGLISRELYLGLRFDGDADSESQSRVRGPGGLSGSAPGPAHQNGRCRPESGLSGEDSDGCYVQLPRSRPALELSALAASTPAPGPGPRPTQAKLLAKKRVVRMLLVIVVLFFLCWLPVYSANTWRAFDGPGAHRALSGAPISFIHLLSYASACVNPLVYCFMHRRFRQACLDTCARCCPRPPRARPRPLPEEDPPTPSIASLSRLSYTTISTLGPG

Regarding `CN1C(=O)C(NC(=O)c2cc3cc(O)ccc3[nH]2)N=C(c2ccccc2)c2ccccc21` (centres unmarked) [Example 15, 1,3-Dihydro-3-(5-hydroxyindole-2-carbonylamino)-1-methyl-5-phenyl-2H-1,4-benzodiazepin-2-one], the IC50 at CCK receptor (pancreas) worked out at 0.0033 µM; in test [1], 0.91 µM.
